The values that follow come from patent US20250177383A1, “DI-CYCLOPROPYL BASED IL-17A MODULATORS AND USES THEREOF” (DICE ALPHA, INC., priority 2022, published 2025).

The structures appear in SMILES notation. Some results are limits rather than exact numbers.

Assay [1] concerns the target T1, IL-17A/A (Homo sapiens, UniProt Q16552).
T1 sequence (Q16552 24-155): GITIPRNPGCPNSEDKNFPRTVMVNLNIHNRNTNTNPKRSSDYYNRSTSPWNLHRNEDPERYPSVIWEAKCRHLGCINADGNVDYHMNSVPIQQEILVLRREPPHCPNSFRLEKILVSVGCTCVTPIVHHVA
The assay can be described thus: IL-17A/A HEK-Blue Cell Assay. Format: cell-based. The following applies: HEK-Blue IL-17 reporter cells, IL-17A/A stimulation, 20 hours, SEAP readout; for IC50: read-out: IL17 AA HEK-5 pIC50 (converted). The protocol:
(§1) The HEK-Blue IL-17 reporter cell line (Fisher #NC1408637) was used for cell-based IL-17A/A inhibition assays. Cells were grown and prepared for assays according to the manufacturer's instructions. This cell line consists of HEK 293 cells that were designed to expressed IL-17R^A, IL-17R^C, and the ActI adapter molecule, the combination of which, when stimulated by IL-17A/A activates a NFκB promoter and drives expression of a recombinant Secreted Alkaline Phosphatase (SEAP) protein. Media from the cells is then added to a development reagent (Quanti-Blue Substrate, Fisher #NC9711613), and read at A630.
Compounds were titrated in DMSO, with a top final compound concentration of 10 uM and added to the cells immediately before adding IL-17A/A (Genscript #Z03228). The cells, compound, and IL-17A/A were then incubated for 20 hours before media was removed for SEAP analysis. The resulting inhibition curve was then analyzed using a Dotmatics screening protocol, and IC50 values were determined using a 4-parameter nonlinear fit. DMSO was added to a universal final concentration of 0.1% to optimize background. IL-17A/A inhibition data is provided in Table 1 for selected compounds.

Assay [2] addresses T2, IL-17A/F (Homo sapiens, UniProt Q16552+Q96PD4).
T2 sequence (Q16552 24-155): T1 sequence (Q16552 24-155)
T2 sequence (Q96PD4 31-163): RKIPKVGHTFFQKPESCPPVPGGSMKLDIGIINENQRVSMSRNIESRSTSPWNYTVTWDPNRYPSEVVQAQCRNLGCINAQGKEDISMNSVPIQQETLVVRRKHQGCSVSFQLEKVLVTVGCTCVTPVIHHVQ
The assay can be described thus: IL-17A/F HEK-Blue Cell Assay. Format: cell-based. The settings on record: HEK-Blue IL-17 reporter cells, IL-17A/F stimulation, 20 hours, SEAP readout; for IC50: read-out: IL17AF HEK Blue pIC50 (converted). The protocol: as §1, with “cell-based IL-17A/F” for “cell-based IL-17A/A”, “expressed IL-17RA,” for “expressed IL-17R^A,”, “(SEAP) geneprotein.” for “(SEAP) protein.”
Compounds were titrated in DMSO and added to the cells immediately before adding IL-17A/A (Custom from R&D systems, untagged IL-17A/F+BSA as a carrier protein). The cells, compound, and IL-17A/A were then incubated for 20 hours before media was removed for SEAP analysis. The resulting inhibition curve was then analyzed using a Dotmatics screening protocol, and IC50 values were determined using a 4-parameter nonlinear fit. DMSO was added to a universal final concentration of 0.1% to optimize background.

For the compound `CO[C@@H](C)C(=O)N[C@@H](C(=O)N1C[C@@H](C)N(C)C[C@H]1C)[C@@H](C)c1ccc(NC(=O)[C@@H](NC(=O)C2(F)CC2)C(C2CC2)C2CC2)c(F)c1` [Compound 290], the IC50 in assay [1] is under 10 nM; in assay [2] it was 100 to 10000 nM.

As for `CCn1nccc1C(=O)N[C@H](C(=O)Nc1ccc([C@H](C)[C@@H](NC(=O)C(C)C2CC2)C(=O)N2CCN(C)[C@H](C)C2)cc1F)C(C1CC1)C1CC1` (single isomer, unassigned) [Compound 310], the “IL17 AA HEK-5 pIC50” value in assay [1] is reported as “A (pIC50 of greater than or equal 8 as A)”. Further, in assay [2], the IC50 was 10 to 100 nM.

On to `CCn1nccc1C(=O)N[C@H](C(=O)Nc1ccc([C@H](C)[C@@H](NC(=O)C(C)Cc2cc(O)no2)C(=O)N2CCN(C)[C@H](C)C2)cc1F)C(C1CC1)C1CC1` (single isomer, unassigned) [Compound 344], for which the results for the IC50 in assay [1] and in assay [2] were under 10 nM and 10 to 100 nM, respectively.

`CO[C@@H](C)C(=O)N[C@@H](C(=O)N1CCN(C)[C@H](C)C1)[C@@H](C)c1ccc(NC(=O)[C@@H](NC(=O)C2(F)CC2)C(C2CC2)C2CC2)c(F)c1` [Compound 273]: the results for the IC50 in assay [1] and in assay [2] were under 10 nM and 100 to 10000 nM, respectively.

For the compound `CCOC(C)C(=O)N[C@@H](C(=O)N1CCN(C)[C@H](C)C1)[C@@H](C)c1ccc(NC(=O)[C@@H](NC(=O)c2ccnn2CC)C(C2CC2)C2CC2)c(F)c1` (single isomer, unassigned) [Compound 323], the IC50 in assay [1] is under 10 nM; in assay [2], 10 to 100 nM.

Take `CCn1nccc1C(=O)N[C@H](C(=O)Nc1ccc([C@H](C)[C@@H](NC(=O)C(C2CC2)C2CC2)C(=O)N2CCN(C)CC2)cc1F)C(C1CC1)C1CC1` [Compound 330]: the results for the IC50 in assay [1] and in assay [2] were under 10 nM and 10 to 100 nM, respectively.

Take `CCn1nccc1C(=O)N[C@H](C(=O)Nc1ccc([C@H](C)[C@@H](NC(=O)C(C)C(F)(F)F)C(=O)N2CCN(C)[C@H](C)C2)cc1F)C(C1CC1)C1CC1` (single isomer, unassigned) [Compound 326]: the IC50 is 10 to 100 nM in assay [1] and 100 to 10000 nM in assay [2].

For the compound `CO[C@@H](C)C(=O)N[C@@H](C(=O)N1CCN(C)CC1)[C@@H](C)c1ccc(NC(=O)[C@@H](NC(=O)c2nonc2C)C(C2CC2)C2CC2)c(F)c1` [Compound 347], the results for the IC50 in assay [1] and in assay [2] were under 10 nM and 100 to 10000 nM, respectively.

For the compound `CCC(=O)N[C@@H](C(=O)N1CCC[C@H](N)C1)[C@@H](C)c1ccc(NC(=O)[C@@H](NC(=O)c2ccnn2CC)C(C2CC2)C2CC2)c(F)c1` [Compound 267], the IC50 in assay [1] was 10 to 100 nM; in assay [2], 100 to 10000 nM.

`CCC(=O)NC(C(=O)N1CCN(C)CC1)C(c1ccc(NC(=O)[C@@H](NC(=O)c2ccnn2CC)C(C2CC2)C2CC2)c(F)c1)C(F)(F)F` (single isomer, unassigned) [Compound 356]: the IC50 in assay [1] is 10 to 100 nM. Further, the “IL17AF HEK Blue pIC50” value in assay [2] was “C (7>C≥5)”.

Consider `CCOC(C)C(=O)N[C@@H](C(=O)N1CCN(C)[C@H](C)C1)[C@@H](C)c1ccc(NC(=O)[C@@H](NC(=O)c2ccnn2CC)C(C2CC2)C2CC2)c(F)c1` (single isomer, unassigned) [Compound 320], for which the IC50 in assay [1] was 10 to 100 nM; in assay [2], 100 to 10000 nM.

For `CCn1nccc1C(=O)N[C@H](C(=O)Nc1ccc([C@H](C)[C@@H](NC(=O)C(C)(F)F)C(=O)N2CCN(C)[C@H](C)C2)cc1F)C(C1CC1)C1CC1` [Compound 292], the results for the IC50 in assay [1] and in assay [2] were under 10 nM and 10 to 100 nM, respectively.

Consider `CCOC(=O)N[C@@H](CF)C(=O)N[C@@H](C(=O)N1CCN(C)CC1)[C@@H](C)c1ccc(NC(=O)[C@@H](NC(=O)c2nonc2C)C(C2CC2)C2CC2)c(F)c1` [Compound 360], for which the IC50 in assay [1] was under 10 nM; in assay [2] it was 10 to 100 nM.

As for `CCn1nccc1C(=O)N[C@H](C(=O)Nc1ccc([C@H](C)[C@@H](NC(=O)[C@H](C)N(C)C2=NCCO2)C(=O)N2CCN(C)[C@H](C)C2)cc1F)C(C1CC1)C1CC1` [Compound 296], the IC50 in assay [1] was under 10 nM; in assay [2] it was 10 to 100 nM.

In the case of `CCC(=O)NC(C(=O)N1CCN(C)CC1)C(c1ccc(NC(=O)[C@@H](NC(=O)c2ccnn2CC)C(C2CC2)C2CC2)c(F)c1)C(F)(F)F` (single isomer, unassigned) [Compound 350], the IC50 in assay [1] and in assay [2] was 100 to 10000 nM in each case.

For the compound `CCC(=O)N[C@@H](C(=O)N1CCNC(CF)C1)[C@@H](C)c1ccc(NC(=O)[C@@H](NC(=O)c2nonc2CC)C(C2CC2)C2CC2)c(F)c1` (single isomer, unassigned) [Compound 304], the figures for the IC50 in assay [1] and in assay [2] were under 10 nM and 100 to 10000 nM, respectively.

Take `CCOC(=O)N[C@@H](C)C(=O)N[C@@H](C(=O)N1CCN(C)CC1)[C@@H](C)c1ccc(NC(=O)[C@@H](NC(=O)c2nonc2C)C(C2CC2)C2CC2)c(F)c1` [Compound 361]: the figures for the IC50 in assay [1] and in assay [2] were under 10 nM and 10 to 100 nM, respectively.

With `CCn1nccc1C(=O)N[C@H](C(=O)Nc1ccc([C@H](C)[C@@H](NC(=O)[C@H](C)OC)C(=O)N2CCN(C)C(CF)C2)cc1F)C(C1CC1)C1CC1` (single isomer, unassigned) [Compound 299], the IC50 in assay [1] was under 10 nM; in assay [2], 10 to 100 nM.

As for `CCn1nccc1C(=O)N[C@H](C(=O)Nc1ccc([C@H](C)[C@@H](NC(=O)C(C)CC(F)(F)F)C(=O)N2CCN(C)CC2)cc1F)C(C1CC1)C1CC1` (single isomer, unassigned) [Compound 331], the figures for the IC50 in assay [1] and in assay [2] were 10 to 100 nM and 100 to 10000 nM, respectively.

Take `CCC(=O)N[C@@H](C(=O)N1CCN(C)[C@H](C)C1)[C@@H](C)c1ccc(NC(=O)[C@@H](NC(=O)c2ccnn2C)C(C2CC2)C2CC2)c(F)c1` [Compound 297]: the IC50 in assay [1] is under 10 nM; in assay [2], 10 to 100 nM.

Turning to `CCC(=O)N[C@@H](C(=O)N1CCN(C)CC1)[C@@H](C)c1ccc(NC(=O)[C@@H](NC(=O)c2ccnn2C2CC2(F)F)C(C2CC2)C2CC2)c(F)c1` (single isomer, unassigned) [Compound 234], the IC50 in assay [1] is under 10 nM.

Take `CCn1nccc1C(=O)N[C@H](C(=O)Nc1ccc([C@H](C)[C@@H](NC(=O)[C@H](C)OC)C(=O)N2C[C@H]3C[C@@H]2CN3C)cc1F)C(C1CC1)C1CC1` [Compound 256]: in assay [1], the IC50 is 10 to 100 nM.

On to `CO[C@@H](C)C(=O)N[C@@H](C(=O)N1CC[C@H](N(C)C)C1)[C@@H](C)c1ccc(NC(=O)[C@@H](NC(=O)c2ccnn2C(C)C)C(C2CC2)C2CC2)c(F)c1` [Compound 262], for which, in assay [1], the IC50 is under 10 nM.

As to `CCC(=O)N[C@@H](C(=O)N1C[C@H]2C[C@@H](C1)N2C)[C@@H](C)c1ccc(NC(=O)[C@@H](NC(=O)c2ccnn2CC)C(C2CC2)C2CC2)c(F)c1` [Compound 241], the IC50 in assay [1] was 10 to 100 nM.

Consider `CCC(=O)N[C@@H](C(=O)N1CCN(C)CC1)[C@@H](C)c1ccc(NC(=O)[C@@H](NC(=O)c2ccnn2CCO)C(C2CC2)C2CC2)c(F)c1` [Compound 243], for which the IC50 in assay [1] was 100 to 10000 nM.

For `CCC(=O)N[C@@H](C(=O)N1CCN(C)[C@H](C)C1)[C@@H](C)c1ccc(NC(=O)[C@@H](NC(=O)c2ccnn2C2CC2)C(C2CC2)C2CC2)c(F)c1` [Compound 229], the IC50 in assay [1] was under 10 nM.

On to `CCC(=O)N[C@@H](C(=O)N1C[C@H]2CC[C@@H](C1)N2C)[C@@H](C)c1ccc(NC(=O)[C@@H](NC(=O)c2ccnn2C(C)C)C(C2CC2)C2CC2)c(F)c1` [Compound 264], for which the IC50 in assay [1] was under 10 nM.

For `CCC(=O)N[C@@H](C(=O)N1CCN(C)CC1)[C@@H](C)c1ccc(NC(=O)[C@@H](NC(=O)c2ccnn2C2CC2(F)F)C(C2CC2)C2CC2)c(F)c1` (single isomer, unassigned) [Compound 233], the IC50 in assay [1] was 10 to 100 nM.

As to `CCC(=O)N[C@@H](C(=O)N1CCN(C)CC1)[C@@H](C)c1ccc(NC(=O)[C@@H](NC(=O)c2ccnn2C2CC2)C(C2CC2)C2CC2)c(F)c1` [Compound 230], the IC50 in assay [1] is 10 to 100 nM.

For the compound `CCC(=O)N[C@@H](C(=O)N1CC2(CN(C)C2)C1)[C@@H](C)c1ccc(NC(=O)[C@@H](NC(=O)c2ccnn2CC)C(C2CC2)C2CC2)c(F)c1` [Compound 238], the IC50 in assay [1] is 100 to 10000 nM.
